Measurements: patent publication EP0406122A1, “Process for obtaining a native, wild-type human oestrogen receptor and its applications” (ASSOCIATION POUR LE DEVELOPPEMENT DE LA RECHERCHE EN …, priority 1989, dated 1991)

Biological target: T1, hER Gly-400 (HEGO) (Homo sapiens, UniProt P03372)
T1 construct: expressed in transfected cells; host or cells: HeLa
T1 sequence (P03372 1-595): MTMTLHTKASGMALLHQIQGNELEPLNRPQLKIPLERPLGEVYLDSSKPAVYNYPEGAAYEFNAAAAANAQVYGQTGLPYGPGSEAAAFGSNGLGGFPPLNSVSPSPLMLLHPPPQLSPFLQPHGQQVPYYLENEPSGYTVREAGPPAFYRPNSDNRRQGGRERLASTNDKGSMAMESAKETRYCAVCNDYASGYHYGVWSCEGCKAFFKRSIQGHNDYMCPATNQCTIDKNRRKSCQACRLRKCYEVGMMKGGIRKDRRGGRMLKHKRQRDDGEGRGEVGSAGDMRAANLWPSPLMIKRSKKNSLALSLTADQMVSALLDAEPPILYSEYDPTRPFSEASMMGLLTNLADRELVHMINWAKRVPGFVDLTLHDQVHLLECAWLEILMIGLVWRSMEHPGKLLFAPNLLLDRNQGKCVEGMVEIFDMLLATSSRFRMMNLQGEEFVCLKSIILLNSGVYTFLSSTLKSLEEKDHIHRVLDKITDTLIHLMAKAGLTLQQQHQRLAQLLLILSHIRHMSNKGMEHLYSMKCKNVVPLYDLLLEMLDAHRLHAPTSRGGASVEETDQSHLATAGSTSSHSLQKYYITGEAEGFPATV
Assay: transcription activation, vit-tk-CAT reporter in HeLa cells transfected with HEGO
Format: cell-based, humain
Settings: 10⁻⁷ M ICI 164,384 in the presence of 10⁻⁸ M oestradiol, CAT activity
Experimental: On a transfecté des cellules Hela avec 50 ng de vecteurs d'expression de Er humain ou de Er de poulet comme indiqué, conjointement avec 1 µg de plasmide "reporter" vit-tk-cat, et le plasmide pCH 110 de contrôle interne de l'expression de la béta-galactosidase (3µg) et de l'ADN transporteur (Bluescribe M13+) pour un total de 20 µg d'ADN.
• A) Des cellules HeLa ont été transfectées avec 10 ng des vecteurs d'expression de l'hER correspondant, HEO (colonnes 1-5), ou HEGO (colonnes 6-10), conjointement avec 1 µG de plasmide "reporter" vit-tk-CAT, 3 µG du plasmide de contrôle de la béta-galactosidase pCH110 et avec de l'ADN Bluescribe M13+ pour un total d'ADN de 20 µg. […] 2 heures plus tard on a récolté les cellules […] et un dosage de la béta-galactosidase a été effectué.

CCCCN(C)C(=O)CCCCCCCCCC[C@@H]1Cc2cc(O)ccc2[C@H]2CC[C@]3(C)[C@@H](O)CC[C@H]3[C@H]12 [ICI 164,384]
effet sur l'induction à l'oestradiol: très peu d'effet
